In PubChem BioAssay AID1919007 (Molecular Pharmacology Branch, DTP, NCI, 2023):

Test system: A498 complex spheroids with HUVEC/MSC, growth
Experiment: Anticancer human tumor A498 cell line growth inhibition [AhR];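 further: seven day exposure starting three days after spheroid seeding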;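 on viability, T/C: luminescence signal used as a surrogate for viable cells; luminescence viability scaled so 100% equals DMSO vehicle wells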
Conditions: for IC50: curve of first compound; for viability, T/C: stronger effect = lower value
In short: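 Complex tumor spheroids co-cultured with HUVEC and human MSC stroma; AhR antagonists tested in combination with standard-of-care and investigational agents. Top concentration at or near clinical Cmax (else 10 microM), half-log dilutions; growth expressed as percent test/control.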

[1] = second compound 0.1 µM, first compound 0.0316 µM
[2] = second compound 0.1 µM, first compound 0.1 µM
[3] = second compound 0.316 µM, first compound 0.0316 µM
[4] = second compound 0.316 µM, first compound 0.1 µM
[5] = second compound 1 µM, first compound 0.0316 µM
[6] = second compound 1 µM, first compound 0.1 µM
[7] = second compound 3.16 µM, first compound 0.0316 µM
[8] = second compound 3.16 µM, first compound 0.1 µM
[9] = second compound 10 µM, first compound 0.0316 µM
[10] = second compound 10 µM, first compound 0.1 µM
[11] = second compound 0.1 µM, first compound 0.316 µM
[12] = second compound 0.1 µM, first compound 1 µM
[13] = second compound 0.1 µM, first compound 3.16 µM
[14] = second compound 0.1 µM, first compound 10 µM
[15] = second compound 0.316 µM, first compound 0.316 µM
[16] = second compound 0.316 µM, first compound 1 µM
[17] = second compound 0.316 µM, first compound 3.16 µM
[18] = second compound 0.316 µM, first compound 10 µM
[19] = second compound 1 µM, first compound 0.316 µM
[20] = second compound 1 µM, first compound 1 µM
[21] = second compound 1 µM, first compound 3.16 µM
[22] = second compound 1 µM, first compound 10 µM
[23] = second compound 3.16 µM, first compound 0.316 µM
[24] = second compound 3.16 µM, first compound 1 µM
[25] = second compound 3.16 µM, first compound 3.16 µM
[26] = second compound 3.16 µM, first compound 10 µM
[27] = second compound 10 µM, first compound 0.316 µM
[28] = second compound 10 µM, first compound 1 µM
[29] = second compound 10 µM, first compound 3.16 µM
[30] = second compound 10 µM, first compound 10 µM

| SMILES | IC50 (second compound 0.1 µM) [nM] | IC50 (second compound 0.316 µM) [nM] | IC50 (second compound 1 µM) [nM] | IC50 (second compound 3.16 µM) [nM] | IC50 (second compound 10 µM) [nM] | viability, T/C [1] [%] | viability, T/C [2] [%] | viability, T/C [3] [%] | viability, T/C [4] [%] | viability, T/C [5] [%] | viability, T/C [6] [%] | viability, T/C [7] [%] | viability, T/C [8] [%] | viability, T/C [9] [%] | viability, T/C [10] [%] | viability, T/C [11] [%] | viability, T/C [12] [%] | viability, T/C [13] [%] | viability, T/C [14] [%] | viability, T/C [15] [%] | further results |
| --- | --- | --- | --- | --- | --- | --- | --- | --- | --- | --- | --- | --- | --- | --- | --- | --- | --- | --- | --- | --- | --- |
| CC[C@@]1(O)C(=O)OCc2c1cc1n(c2=O)Cc2cc3c(CN(C)C)c(O)ccc3nc2-1 + Cc1cncc(-c2nc(NCCc3c[nH]c4ccccc34)c3ncn(C(C)C)c3n2)c1 | > 100 | > 100 | > 100 | > 100 | < 0.316 | 72.9 | 69.8 | 83.3 | 72.9 | 77 | 66.6 | 56.5 | 53.1 | 6.79 | 8.73 | – | – | – | – | – | viability, T/C (second compound 0.1 µM, first compound 0.000316 µM): 87.4%; viability, T/C (second compound 0.1 µM, first compound 0.001 µM): 92.5%; viability, T/C (second compound 0.1 µM, first compound 0.00316 µM): 90.1%; viability, T/C (second compound 0.1 µM, first compound 0.01 µM): 84.7%; viability, T/C (second compound 0.316 µM, first compound 0.000316 µM): 88.7%; viability, T/C (second compound 0.316 µM, first compound 0.001 µM): 92.2%; viability, T/C (second compound 0.316 µM, first compound 0.00316 µM): 91.1%; viability, T/C (second compound 0.316 µM, first compound 0.01 µM): 83.1%; viability, T/C (second compound 1 µM, first compound 0.000316 µM): 89.2%; viability, T/C (second compound 1 µM, first compound 0.001 µM): 92.5%; viability, T/C (second compound 1 µM, first compound 0.00316 µM): 98.3%; viability, T/C (second compound 1 µM, first compound 0.01 µM): 76.5%; viability, T/C (second compound 3.16 µM, first compound 0.000316 µM): 61.4%; viability, T/C (second compound 3.16 µM, first compound 0.001 µM): 72.9%; viability, T/C (second compound 3.16 µM, first compound 0.00316 µM): 65.8%; viability, T/C (second compound 3.16 µM, first compound 0.01 µM): 60.5%; viability, T/C (second compound 10 µM, first compound 0.000316 µM): 4.54%; viability, T/C (second compound 10 µM, first compound 0.001 µM): 6%; viability, T/C (second compound 10 µM, first compound 0.00316 µM): 7.18%; viability, T/C (second compound 10 µM, first compound 0.01 µM): 5.32% |
| COc1cc(C2c3cc4c(cc3C(OC3OC5COC(C)OC5C(O)C3O)C3COC(=O)C23)OCO4)cc(OC)c1O (stereo not given) + Cc1cncc(-c2nc(NCCc3c[nH]c4ccccc34)c3ncn(C(C)C)c3n2)c1 | > 10000 | > 10000 | > 10000 | 3640 | < 31.6 | 79.4 | 73 | 83.7 | 76.6 | 79.8 | 74 | 61.4 | 63.6 | 3.97 | 4.03 | 73.3 | 68.1 | 62.4 | 52.2 | 79.9 | viability, T/C [16]: 69%; viability, T/C [17]: 59.9%; viability, T/C [18]: 59%; viability, T/C [19]: 74.4%; viability, T/C [20]: 60.5%; viability, T/C [21]: 56.3%; viability, T/C [22]: 50.1%; viability, T/C [23]: 66.9%; viability, T/C [24]: 56.8%; viability, T/C [25]: 47.1%; viability, T/C [26]: 43.2%; viability, T/C [27]: 4.95%; viability, T/C [28]: 4.99%; viability, T/C [29]: 5.98%; viability, T/C [30]: 6.6% |
| Nc1ccn(C2OC(CO)C(O)C2(F)F)c(=O)n1 (stereo not given) + Cc1cncc(-c2nc(NCCc3c[nH]c4ccccc34)c3ncn(C(C)C)c3n2)c1 | < 31.6 | < 31.6 | < 31.6 | < 31.6 | < 31.6 | 26.9 | 33.5 | 29 | 32 | 32.7 | 26.5 | 45.1 | 27.8 | 4.54 | 4.79 | 41.7 | 41.2 | 36.5 | 39.1 | 42.7 | viability, T/C [16]: 43.7%; viability, T/C [17]: 41.9%; viability, T/C [18]: 39.9%; viability, T/C [19]: 39.7%; viability, T/C [20]: 42.2%; viability, T/C [21]: 39.5%; viability, T/C [22]: 34%; viability, T/C [23]: 28.7%; viability, T/C [24]: 30.5%; viability, T/C [25]: 28.8%; viability, T/C [26]: 33%; viability, T/C [27]: 5.17%; viability, T/C [28]: 3.59%; viability, T/C [29]: 3.85%; viability, T/C [30]: 5.49% |
